For data set [1], the target named is T1, ternary complex consisting of GFP-ABD-L253P, Lifeact-mCherry, and actin (Homo sapiens, UniProt O15020, L253P).
T1 construct: L252P β-III-spectrin (human) ABD residues 1-284; expressed in transfected cells; host or cells: HEK293-6E, pTT5 vector, transient
Description: Primary live-cell time-resolved FRET assay (GFP-ABD-L253P plus Lifeact-mCherry). The class given is cell-based. Particulars: for effect on FRET in primary screen (Hit, 4SD threshold): LOPAC compounds 10 μM, 120 min.

A further data set addresses T2, ABD-L253P (Homo sapiens, UniProt O15020, L253P).
T2 construct: His-SUMO (cleaved yes); made in house; host or cells: E. coli BL21(DE3), pE-SUMOpro
Description: Sedimentation of ABD L253P without actin (aggregation). As to conditions: 10 μM. The protocol:
(§1) F-actin and ABD binding assays were performed as previously described. In brief, binding assays used 1 μM ABD protein, 1 μM F-actin and 1-50 μM compound (as indicated) or DMSO control for a total reaction volume of 60 μL in F-buffer containing 10 mM Tris, pH 7.5, 150 mM NaCl, 0.5 mM ATP, 2 mM MgCl2, and 1 mM DTT. Following 30 min incubation at room temperature (21° C.). F-actin was pelleted using centrifugation at 100,000×g at 25° C. for 30 min. Unbound ABD in the supernatant was measured following SDS-PAGE and Coomassie blue staining in accord. In addition, control co-sedimentations assays that lacked actin were performed to test if compounds cause ABD aggregation. F-actin and Lifeact-mCherry binding assays were undertaken with 2 μM Lifeact-mCherry, 30 μM F-actin and 1-50 μM compound (as indicated) or DMSO control for a total reaction volume of 80 μL in F-buffer. For a no-actin binding control, an assay sample with no F-actin was also set up. Binding reactions were allowed to reach equilibrium at room temperature (21° C.) for 30 min and then F-actin was pelleted by centrifugation at 100,000×g at 25° C. for 30 min. The amount of unbound Lifeact-mCherry was sampled by loading 7 μL of spin supernatant on a low volume black bottom 384-well plate (Greiner). Amount of mCherry was determined by acquiring fluorescence spectrum peak intensity at ˜600 nm using a spectral unmixing plate reader (Fluorescence Innovations, Inc) equipped with a 532 nm laser (Laserglow Technologies, Ontario, Canada) for excitation, 532 nm longpass filter for emission, and PMT for emission detection. The fraction of Lifeact-mCherry bound to F-actin was determined by subtracting from one the fraction of supernatant fluorescence intensity relative to the no-actin control sample, using the following equation: […]
In addition to a reduction in cell viability, the primary and counter screen may be sensitive to compounds that promote ABD-L253P protein aggregation. […] Our ABD-L253P to actin co-sedimentation assay is unlikely to be sensitive to ABD aggregation, as it is set up to monitor maximal sedimentation of ABD-L253P with actin at ˜90% ABD-L253P co-sedimenting. To directly measure the impact of 10 μM Hit compounds on ABD aggregation, we repeated the ABD-actin co-sedimentation without actin present.

The target in data set [2] is T3, Lifeact-mCherry binding to F-actin (Oryctolagus cuniculus, UniProt P68135).
T3 construct: Actin was purified from acetone powder derived from the psoas muscle; made in house; host or cells: actin from rabbit psoas muscle; Lifeact-mCherry from E. coli, pE-SUMOpro
Nature of the data set: F-actin and Lifeact-mCherry co-sedimentation assay. The arrangement: species or system New Zealand white rabbit (Oryctolagus cuniculus). As to the method:
(§2) Actin was purified from acetone powder derived from the psoas muscle of New Zealand white rabbit (Oryctolagus cuniculus). Filamentous (F)-actin was stored for up to 3 days on ice before use in binding assays. Within an hour of the binding assay, the F-actin was clarified at 100,000×g at 4° C. for 10 min prior to setting up binding assays. The L253P β-III-spectrin ABD was expressed in E. coli BL21(DE3) (Novagen). The ABD was purified and the His-SUMO tag proteolytically removed, as previously described, except size-exclusion chromatography was not performed due to the high purity of the ABD protein. Lifeact-mCherry protein was similarly prepared. A Bradford assay was performed to determine clarified F-actin and ABD protein concentrations.
F-actin and ABD binding assays were performed as previously described. In brief, binding assays used 1 μM ABD protein, 1 μM F-actin and 1-50 μM compound (as indicated) or DMSO control for a total reaction volume of 60 μL in F-buffer containing 10 mM Tris, pH 7.5, 150 mM NaCl, 0.5 mM ATP, 2 mM MgCl2, and 1 mM DTT. Following 30 min incubation at room temperature (21° C.). F-actin was pelleted using centrifugation at 100,000×g at 25° C. for 30 min. Unbound ABD in the supernatant was measured following SDS-PAGE and Coomassie blue staining in accord. In addition, control co-sedimentations assays that lacked actin were performed to test if compounds cause ABD aggregation. F-actin and Lifeact-mCherry binding assays were undertaken with 2 μM Lifeact-mCherry, 30 μM F-actin and 1-50 μM compound (as indicated) or DMSO control for a total reaction volume of 80 μL in F-buffer. For a no-actin binding control, an assay sample with no F-actin was also set up. Binding reactions were allowed to reach equilibrium at room temperature (21° C.) for 30 min and then F-actin was pelleted by centrifugation at 100,000×g at 25° C. for 30 min. The amount of unbound Lifeact-mCherry was sampled by loading 7 μL of spin supernatant on a low volume black bottom 384-well plate (Greiner). Amount of mCherry was determined by acquiring fluorescence spectrum peak intensity at ˜600 nm using a spectral unmixing plate reader (Fluorescence Innovations, Inc) equipped with a 532 nm laser (Laserglow Technologies, Ontario, Canada) for excitation, 532 nm longpass filter for emission, and PMT for emission detection. The fraction of Lifeact-mCherry bound to F-actin was determined by subtracting from one the fraction of supernatant fluorescence intensity relative to the no-actin control sample, using the following equation:
[formula] • Where Fcontrol/DMSO is the peak mCherry fluorescence of assay samples containing compound or DMSO control, and Fno-actin is the peak mCherry fluorescence of assay samples that contained no F-actin. 2.9 Trypan Blue Cell Viability Assays

The subject of the next data set is HEK293-6E cells. Nature of the data set: Trypan blue cell viability assay. It is filed as cell-based. As to the method:
HEK293-6E cell viability was measured using trypan blue (0.03%) staining and a Countess Automated Cell counter (Invitrogen). Non-transfected HEK293-6E cells were spun at 100×g for 5 min at 21° C., and resuspended in 10 mL of PBS. The centrifugation and resuspension were repeated twice more. Final cell concentration was 1×10^6 cells/mL. Cells were incubated with 2% DMSO, or 3-50 μM compound (as indicated) for 3 hrs at room temperature (21° C.). After addition of 100 μL of 0.06% trypan blue solution in PBS, 10 μL was loaded on a slide and injected into the cell counter, and cell viability was measured.

In data set [3] the target is T4, ABD-L253P (L253P β-III-spectrin ABD) binding to F-actin (Homo sapiens, UniProt O15020, L253P).
T4 construct: His-SUMO (cleaved yes); made in house; host or cells: E. coli BL21(DE3), pE-SUMOpro; actin from rabbit psoas muscle
T4 sequence (O15020 1-284 L253P): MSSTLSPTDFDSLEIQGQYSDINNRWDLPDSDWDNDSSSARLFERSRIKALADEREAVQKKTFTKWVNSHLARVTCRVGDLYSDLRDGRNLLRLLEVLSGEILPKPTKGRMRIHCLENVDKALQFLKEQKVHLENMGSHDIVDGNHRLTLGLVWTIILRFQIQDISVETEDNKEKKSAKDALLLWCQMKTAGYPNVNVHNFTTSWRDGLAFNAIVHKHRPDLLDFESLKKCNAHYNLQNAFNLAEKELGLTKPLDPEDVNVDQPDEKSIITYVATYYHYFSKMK
Nature of the data set: F-actin and ABD co-sedimentation assay. As to conditions: 50 μM, 1 μM ABD, 1 μM F-actin. The protocol:
as §2
as §1, with “F-actin and Lifeact-mCherry binding assays were undertaken with 2 μM Lifeact-mCherry, 30 μM F-actin and 1-50 μM compound (as indicated) or DMSO control for a total reaction volume of 80 μL in F-buffer. For a no-actin binding control, an assay sample with no F-actin was also set up. Binding reactions were allowed to reach equilibrium at room temperature (21° C.) for 30 min and then F-actin was pelleted by centrifugation at 100,000×g at 25° C. for 30 min. The amount of unbound Lifeact-mCherry was sampled by loading 7 μL of spin supernatant on a low volume black bottom 384-well plate (Greiner).” left out

Data set [4] deals with T5, GFP-ABD-L253P and mCherry (non-specific FRET) in HEK293-6E cells (Homo sapiens, UniProt O15020, L253P).
T5 construct: L252P β-III-spectrin (human) ABD residues 1-284; expressed in transfected cells; host or cells: HEK293-6E, pTT5 vector, transient
T5 sequence (O15020 1-284 L253P): as above
Description: Counter FRET assay, non-specific FRET (GFP-ABD-L253P plus mCherry). It is filed as cell-based. As to conditions: 0.1% Triton X-100, cell lysis. As to the method:
At 2×10^6 cells/mL, HEK293-6E cells were transfected with GFP-ABD (2.4 μg), Lifeact-mCherry (2.4-16.8 μg), mCherry (1.2-16.8 μg), and/or pTT5 (0.8-17.6 μg) using the 293fectin protocol (Thermo Fisher Scientific) with 20 μg total DNA. The cells were harvested 24 hours later by centrifugation at 100×g for 5 min, and then washed twice with PBS. Cell viability and concentration were determined using trypan blue assay and a Countess cell counter (Invitrogen).
Using a Multidrop Combi liquid dispenser (Thermo Fisher Scientific), 10^6 cells/mL were dispersed into 1536-well and 384-well plates as 5 or 50 μL aliquots, respectively. For control and tool compound plates, 100 nL of DMSO or potential tool compound was loaded using the Mantis (Formulatrix). […] Two to three hours after sample loading, fluorescence lifetime measurements were performed using high-throughput fluorescence plate-readers provided by Photonic Pharma LLC (MN, USA), including one detecting fluorescence lifetime and another detecting fluorescence spectra, as described previously.
To develop a biosensor that monitors the binding of mutant L253P β-III-spectrin to actin filaments in live cells, a fluorescence resonance energy transfer (FRET) approach was tested. […] To measure the non-specific component to our FRET readout, we concurrently tested expression of mCherry in place of Lifeact-mCherry. […]

Experimental findings from patent publication US11656221B2, “Methods to identify modulators of actin-binding proteins” (Regents of the University of Minnesota, priority 2019, dated 2023) are described below.

“Also recorded” adds a separate entry of the source.

T2 sequence (O15020 1-284 L253P): as above
T1 sequence (O15020 1-284 L253P, one chain of several): as the sequence (O15020 1-284 L253P) above

Take `CC(C)(C)c1ccc(/C=C/C(=O)Nc2ccc3c(c2)OCCO3)cc1` [AMG 9810]: the “effect on FRET in primary screen (Hit, 4SD threshold)” value (“effect on FRET in primary screen” for short) in data set [1] is given as “decrease FRET”. In addition, the “ABD L253P aggregation (pelleting without actin)” value at ABD-L253P was “increases ABD pelleting; also recorded: promote aggregation”.
As for `CC(C)(Sc1ccc(CCN(CCCCC2CCCCC2)C(=O)NC2CCCCC2)cc1)C(=O)O` [GW7647], in data set [1], the “effect on FRET in primary screen” value is “decrease FRET”. Further, the “effect on Lifeact-mCherry binding with actin” value (shortened to “effect … with actin”) in data set [2] (10 μM) is reported as “decreased actin-Lifeact co-sedimentation; also recorded: reduce Lifeact-mCherry binding with actin”. Also, the “effect on HEK293-6E cell viability” value in the data set with HEK293-6E cells (10 μM, 3 hr incubation) is “dramatically reduced cell viability; also recorded: reduces HEK293-6E cell viability”. Further, the “ABD L253P aggregation (pelleting without actin)” value at ABD-L253P is on record as “increases ABD pelleting; also recorded: promote aggregation”.
`O=C(O)c1cc([N+](=O)[O-])ccc1NCCCc1ccccc1` [NPPB]: the “effect on FRET in primary screen” value in data set [1] was “decrease FRET”. Further, the “effect … with actin” value in data set [2] (10 μM) is given as “decreased actin-Lifeact co-sedimentation; also recorded: reduce Lifeact-mCherry binding with actin”. Further, the “ABD L253P aggregation (pelleting without actin)” value at ABD-L253P is given as “promote aggregation”; on ABD-L253P (listed as NBBP) it was “increases ABD pelleting”.
Consider `CCCc1c(-c2ccc(O)cc2)nn(-c2ccc(O)cc2)c1-c1ccc(O)cc1` [PPT], for which, in data set [1], the “effect on FRET in primary screen” value was “decrease FRET”. Further, at ABD-L253P, the “ABD L253P aggregation (pelleting without actin)” value is reported as “increases ABD pelleting; also recorded: promote aggregation”.
For `CCCCCCCC/C=C\CCCCCCCC(=O)NCc1ccc(O)c(OC)c1` [olvanil], the “effect on FRET in primary screen” value in data set [1] was “decrease FRET”. In addition, the “ABD L253P aggregation (pelleting without actin)” value on ABD-L253P is recorded as “increases ABD pelleting; also recorded: promote aggregation”.
In the case of `[H]/N=C(/NCCCCC)N/N=C/c1c[nH]c2ccc(OC)cc12` [tegaserod], the “reduction of total FRET” value in data set [1] (50 μM, HEK293-6E cells, relative to DMSO) came out at 83%. Further, in data set [3], the “effect on ABD-L253P binding to actin” value is reported as “did not alter; also recorded: no significant effect”. Moreover, the “effect … with actin” value in data set [2] (50 μM) was “did not alter and not”. For the same molecule, in the data set with HEK293-6E cells (50 μM, 3 hrs), the “decrease in cell viability” value stood at 92% and the “effect on HEK293-6E cell viability” value is reported as “greatly diminished cell viability; also recorded: abolishes HEK293-6E cell viability”.
Triton X-100: the “effect on total FRET” value in data set [1] (0.1% Triton X-100, cell lysis) was “abolished”. Also, the “effect on non-specific FRET” value in data set [4] is “abolished”.
